Laboratory results: paper PMC9643456, “Matching amino acids membrane preference profile to improve activity of antimicrobial peptides” (Communications Biology, 2022)
Square brackets hold non-standard residues; d marks the D form. Peptide text beside a SMILES is read from it.

Test system: MDR A. baumannii
Experiment: Killing kinetics in the SEM sample
Type: cell-based, Acinetobacter baumannii
Settings: 2 × 10^8 cfu/ml, x1 MIC, PBS, after 4 hours
Experimental: FE-SEM was used to observe peptide-induced changes in bacterial morphology. MDR A. baumannii (ATCC BAA-1605) and MDR S. aureus (KCCM 40510) were cultured in CAMHB to log phase and washed in PBS. Bacteria and peptides were diluted in PBS, after which aliquots of bacteria (50 μl) and peptides (50 μl) were mixed to yield the following final concentrations: MDR A. baumannii or MDR S. aureus, 2 × 10^8 CFU/ml; WCopW29, 2.5 μM. Mixtures were deposited onto cover glass slips and incubated for 0 min, 15 min, 30 min, 1 h or 4 h. After incubation, the bacteria were fixed with paraformaldehyde (4%) and osmium tetroxide (1%) (Sigma, Darmstadt, Germany), washed with water, and freeze-dried overnight. Freeze-dried samples were Pt-coated and placed in an S-4700, EMAX System field emission scanning electron microscope (Hitachi, Tokyo, Japan). Bacterial morphologies were imaged and recorded on video at magnifications of 10,000× and 25,000×.
Antimicrobial kinetics for each peptide and each bacterial strain were assessed using FE-SEM. […] Each experiment was performed in triplicate.

SMILES: CC[C@@H](C)[C@@H](NC(=O)[C@@H](Cc1c[nH]c2ccccc12)NC(=O)[C@H](NC(=O)[C@@H](CC(C)C)NC(=O)[C@H](N)Cc1c[nH]c2ccccc12)C(C)C)C(=O)N[C@H](Cc1c[nH]c2ccccc12)C(=O)N[C@H](CCCNC(=N)N)C(=O)N[C@H](CCCNC(=N)N)C(=O)N[C@H](CCCNC(=N)N)C(N)=O [WCopW29] (H-[dW][dL][dV][dW][dI][dW][dR][dR][dR]-NH2)
- Loss of colony forming: 99%
